{
  "source": "patent US20170089921A1",
  "about": "“EXPRESSION OF VOLTAGE-GATED ION CHANNELS IN CILIATES” (priority 2014, published 2017)",
  "key": {"Nav1.8": {"target": "Nav1.8 (Homo sapiens, UniProt Q9Y5Y9)", "sequence (Q9Y5Y9 whole entry)": "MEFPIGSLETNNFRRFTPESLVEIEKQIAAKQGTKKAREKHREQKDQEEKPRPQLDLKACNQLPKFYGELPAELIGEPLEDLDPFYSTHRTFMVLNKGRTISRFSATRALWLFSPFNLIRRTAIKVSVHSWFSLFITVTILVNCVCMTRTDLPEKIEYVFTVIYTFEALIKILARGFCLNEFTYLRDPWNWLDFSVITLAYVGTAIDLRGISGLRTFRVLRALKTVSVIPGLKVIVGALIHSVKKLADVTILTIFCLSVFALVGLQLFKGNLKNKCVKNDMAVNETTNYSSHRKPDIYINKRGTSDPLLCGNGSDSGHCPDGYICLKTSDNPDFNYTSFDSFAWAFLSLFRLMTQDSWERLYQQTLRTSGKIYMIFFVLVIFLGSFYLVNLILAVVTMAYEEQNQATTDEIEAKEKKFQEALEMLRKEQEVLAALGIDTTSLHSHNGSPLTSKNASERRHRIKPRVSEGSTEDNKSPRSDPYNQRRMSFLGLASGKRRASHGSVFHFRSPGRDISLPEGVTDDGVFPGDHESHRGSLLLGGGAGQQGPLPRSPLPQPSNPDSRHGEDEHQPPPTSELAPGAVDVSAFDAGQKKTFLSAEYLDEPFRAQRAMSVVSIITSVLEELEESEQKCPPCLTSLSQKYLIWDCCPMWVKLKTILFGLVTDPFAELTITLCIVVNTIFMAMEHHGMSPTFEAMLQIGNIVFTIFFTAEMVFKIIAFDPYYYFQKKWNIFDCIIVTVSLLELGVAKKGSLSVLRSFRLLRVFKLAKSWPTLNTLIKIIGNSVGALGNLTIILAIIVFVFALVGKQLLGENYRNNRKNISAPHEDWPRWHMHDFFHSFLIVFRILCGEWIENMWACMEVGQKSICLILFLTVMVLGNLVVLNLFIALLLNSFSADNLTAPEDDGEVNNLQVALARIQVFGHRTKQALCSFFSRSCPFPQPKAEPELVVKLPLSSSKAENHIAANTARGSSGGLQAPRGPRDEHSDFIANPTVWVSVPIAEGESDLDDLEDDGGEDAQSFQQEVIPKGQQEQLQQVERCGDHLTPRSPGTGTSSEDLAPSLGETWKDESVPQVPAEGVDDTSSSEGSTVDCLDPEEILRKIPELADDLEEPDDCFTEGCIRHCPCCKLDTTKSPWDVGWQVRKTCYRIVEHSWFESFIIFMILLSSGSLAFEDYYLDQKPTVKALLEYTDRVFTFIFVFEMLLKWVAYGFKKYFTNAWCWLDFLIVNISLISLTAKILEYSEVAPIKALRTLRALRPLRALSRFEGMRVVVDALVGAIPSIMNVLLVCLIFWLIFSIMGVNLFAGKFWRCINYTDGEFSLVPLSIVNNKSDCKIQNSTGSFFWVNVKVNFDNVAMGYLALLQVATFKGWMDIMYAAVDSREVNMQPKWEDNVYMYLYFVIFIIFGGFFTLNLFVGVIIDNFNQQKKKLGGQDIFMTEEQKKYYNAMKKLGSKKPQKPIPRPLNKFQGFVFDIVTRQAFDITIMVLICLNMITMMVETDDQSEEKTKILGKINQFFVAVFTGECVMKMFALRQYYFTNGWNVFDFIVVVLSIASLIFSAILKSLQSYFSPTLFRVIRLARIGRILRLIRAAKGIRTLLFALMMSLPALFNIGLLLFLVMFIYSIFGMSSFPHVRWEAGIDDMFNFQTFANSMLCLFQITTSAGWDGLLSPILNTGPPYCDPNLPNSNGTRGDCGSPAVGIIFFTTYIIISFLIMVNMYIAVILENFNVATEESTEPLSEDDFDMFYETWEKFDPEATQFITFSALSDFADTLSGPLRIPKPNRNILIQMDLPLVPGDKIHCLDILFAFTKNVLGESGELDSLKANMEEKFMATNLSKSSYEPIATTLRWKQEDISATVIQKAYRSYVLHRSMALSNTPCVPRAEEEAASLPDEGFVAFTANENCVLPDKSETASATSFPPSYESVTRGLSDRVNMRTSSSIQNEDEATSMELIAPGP", "assay_type": "biochemical"}, "[1]": {"test_system": "Wild-type (WT) Tetrahymena cells", "assay": "Fluorescent toxin labeling of fixed wild-type control Tetrahymena cells", "assay_type": "binding, Tetrahymena thermophila", "conditions": "10 nM, 30 minutes at RT"}, "Kv1.3 [2]": {"target": "T1, Kv1.3 (Homo sapiens, UniProt P22001)", "T1 construct": "expressed in transfected cells; host or cells: Tetrahymena thermophila (transformed, CdCl2-induced, paraformaldehyde-fixed)", "T1 sequence (P22001 whole entry)": "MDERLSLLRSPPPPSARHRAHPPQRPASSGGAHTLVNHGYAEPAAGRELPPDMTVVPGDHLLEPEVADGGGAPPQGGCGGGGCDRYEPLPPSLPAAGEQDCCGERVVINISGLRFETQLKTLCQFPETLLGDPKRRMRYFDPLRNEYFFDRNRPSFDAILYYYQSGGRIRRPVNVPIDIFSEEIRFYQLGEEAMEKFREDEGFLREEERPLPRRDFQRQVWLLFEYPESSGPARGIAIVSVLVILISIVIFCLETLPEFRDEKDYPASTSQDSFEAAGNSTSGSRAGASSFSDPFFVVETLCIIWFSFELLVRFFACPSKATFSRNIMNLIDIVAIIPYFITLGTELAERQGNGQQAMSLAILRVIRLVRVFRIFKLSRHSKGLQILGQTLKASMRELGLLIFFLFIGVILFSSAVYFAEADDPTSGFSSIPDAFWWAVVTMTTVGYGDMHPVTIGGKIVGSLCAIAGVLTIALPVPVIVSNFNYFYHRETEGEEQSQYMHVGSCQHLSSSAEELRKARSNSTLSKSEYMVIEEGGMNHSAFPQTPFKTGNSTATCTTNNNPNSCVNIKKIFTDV", "assay": "Fluorescent toxin labeling of fixed Kv1.3 expressing Tetrahymena cells (confocal microscopy)", "assay_type": "binding", "conditions": "10 nM, 30 minutes at RT"}, "Kv1.3 [3]": {"target": "T1, Kv1.3", "assay": "Competition of ShK-TAMRA labeling of Kv1.3 expressing cells by non-labeled toxins", "assay_type": "binding", "conditions": "100 nM (saturating) toxin co-incubated with 10 nM ShK-TAMRA"}},
  "note": "No end group written: not given here.",
  "data": [
    {"compound": "Cc1c[nH]c(C)c1C(=O)O[C@@H](C)C1=CC[C@@]23OCCN(C)C[C@@]12C[C@@H](O)[C@]12O[C@]4(O)CC[C@@]1(C)[C@H](CC=C32)C4", "note": "[BTX, batrachatoxin]", "values": [
      {"measurement": "channel activity following addition of activator", "setting": "Nav1.8; Nav1.8 proteoliposomes, 10× NaCl chemical gradient, 0 mV holding potential, no conductance before addition", "value": "channel activity was detected"},
      {"measurement": "conductances", "setting": "Nav1.8; after addition of BTX, 10× NaCl chemical gradient, 0 mV holding potential", "value": "2-3 pA"}
    ]},
    {"compound": "Agitoxin-2-TAMRA [AgTX-2-TAMRA]", "values": [
      {"measurement": "labeling of WT cells", "setting": "[1]", "value": "No labeling"},
      {"measurement": "binding to Kv1.3 expressing cells (cell surface labeling)", "setting": "Kv1.3 [2]", "value": "bound to Kv1.3 expressing cells"}
    ]},
    {"compound": "Iberiotoxin (QFTDVDCSVSKECWSVCKDLFGVDRGKCMGKKCRCYQ; ends and bridges not checked; cysteine pairing not given here; UniProt P24663 1-37, looked up) [IbTX]", "values": [
      {"measurement": "competition with ShK-TAMRA binding", "setting": "Kv1.3 [3]", "value": "does not interfere with ShK-TAMRA binding"}
    ]},
    {"compound": "NC1=N[C@H](O)[C@H]2[C@H]3O[C@]4(O)O[C@@H]([C@@H](O)[C@@]2(N1)[C@@H]4O)[C@]3(O)CO", "note": "[Tetrodotoxin]", "values": [
      {"measurement": "channel activity following addition of blocker", "setting": "Nav1.8", "value": "Activity was abolished"}
    ]},
    {"compound": "ShK-TAMRA", "values": [
      {"measurement": "labeling of WT cells", "setting": "[1]", "value": "No labeling"},
      {"measurement": "binding to Kv1.3 expressing cells (cell surface labeling)", "setting": "Kv1.3 [2]", "value": "bound to Kv1.3 expressing cells"}
    ]},
    {"compound": "Margatoxin (TIINVKCTSPKQCLPPCKAQFGQSAGAKCMNGKCKCYPH; ends and bridges not checked; cysteine pairing not given here; UniProt P40755 1-39, looked up) [MgTX]", "values": [
      {"measurement": "competition with ShK-TAMRA binding", "setting": "Kv1.3 [3]", "value": "competitive"}
    ]}
  ]
}
